US20190135879A1, “GENE REGULATING BIN2 FUNCTION AND TRANSGENIC PLANT TRANSFORMED BY THE GENE” (SEOUL NATIONAL UNIVERSITY R&DB FOUNDATION, priority 2016, published 2019)
Residues, ends and D or L forms follow the SMILES beside them. *: point of attachment. Cbz = O=C(OCc1ccccc1)*

Tests used:
BIN2-HA protein = test: BL treatment assay, BIN2-HA protein amount by IP/Western analysis; assay type: in vivo, Arabidopsis thaliana
Procedure: Seedlings from 1-week-old plants were harvested and ground to powder in N2 and mixed with the extraction buffer containing 50 mM Tris-Cl (pH 7.5), 100 mM NaCl, 10 mM MgCl2, 1 mM EDTA, 10% glycerol 0.1% NP-40, 1 mM phenymethylsulfonyl fluoride (PMSF), and 1× protease inhibitor cocktail (GenDEPOT) 20 min at 4° C.
The IP experiments were performed using HA Tag IP/Co-IP Kit according to the manufacturer's protocol (Thermo Pierce).
The supernatant was incubated with prewashed anti-HA agarose beads for 4 h at 4° C. with gentle shaking. The beads were collected and washed three times with TBS plus 0.05% Tween-20 detergent (TBST), and dissolved in 2×SDS sample buffer. The proteins were separated by 10% SDS-PAGE, and Anti-HA (1:2,000, AbCam #9110) antibody was used to detect BIN2-HA.
[…] The seedlings were transferred to liquid 1/2 MS medium with 1% sucrose containing various concentrations of BL (24-epibrassinolide, Sigma #E1641), and incubated for the indicated times before being removed for Western analysis.
To investigate the BL-Induced BIN2 degradation, BRZ (Sekimata et al., 2001) treated seedlings were incubated in liquid 1/2 MS medium containing 1 μM BL and/or 20 μM MG132 (Sigma), a specific 26S proteasome inhibitor (Rock et al., 1994) for 30 min.

[1] = test system: BIN2-HA transgenic seedlings; test: Phenotype of BIN2-HA transgenic seedlings on BRZ / BL medium; assay type: in vivo, Arabidopsis thaliana
Procedure: (§1) Arabidopsis seeds were sterilized and germinated on agar-solidified 1/2 Murashige and Skoog (MS, Duchefa #M0222) with 1% sucrose. After stratification at 4° C. for 3 days, the wild type and mutant plants were grown under a photoperiod of a long day condition (16 h light/8 h dark) at 23° C. Seeds of various transgenic lines were germinated on Murashige and Skoog medium (1/2 MS) with 2 μM BRZ (Sigma), a BR biosynthesis inhibitor, and grown under a long day condition at 23° C. for 1 week. The seedlings were transferred to liquid 1/2 MS medium with 1% sucrose containing various concentrations of BL (24-epibrassinolide, Sigma #E1641), and incubated for the indicated times before being removed for Western analysis. To confirm whether the amount of BIN2 is affected by the BRs level, we grew BIN2-HA line and a bin2-6D-HA line on medium containing 2 μM BRZ for 2 weeks and then transferred them to liquid medium with 1 μM epi-BL for 2 to 8 days.

[2] = test system: bin2-6D-HA transgenic seedlings; test: Phenotype of bin2-6D-HA transgenic seedlings on BL medium; assay type: in vivo, Arabidopsis thaliana; conditions: 1 μM BL-containing medium for 0, 2, 4 and 8 d
Procedure: as §1

BIN2 [3] = test: Immunoprecipitation combined with LC/MALDI-TOF/MS of BIN2-interacting proteins; assay type: binding, Arabidopsis thaliana; conditions: BL-treated transgenic seedlings, anti-HA IP
Procedure: Seeds of transgenic lines, BIN2-HA, bin2-6D-HA, and BIN2KD-HA, were germinated on agar-solidified 1/2 MS with 1% sucrose supplemented with 1 μM BRZ and grown under a long day condition at 23° C. for 2 week. The seedlings were transferred them to liquid medium (1/2 MS with 1% sucrose) with 1 μM BL, and incubated for 30 min. These seedlings were ground to powder in liquid nitrogen and solubilized with protein extraction buffer containing 50 mM Tris-Cl (pH 7.5), 100 mM NaCl, 10 mM MgCl2, 1 mM EDTA, 10% glycerol 0.1% NP-40, 1 mM PMSF, and 1× Protease inhibitor cocktail (GenDEPOT). The extracts were centrifuged at 20,000×g for 20 min, and the resulting supernatants were collected and incubated with pretreated anti-HA agarose bead (Thermo Pierce) at 4° C. After incubation, the agarose beads were collected by centrifugation at 800×g for 30 sec and washed three times with extraction buffer. Immunoprecipitation (IP) complex was eluted by elution buffer containing 50 mM Tris-HCl (pH 7.5), 50 mM DTT, 1 mM EDTA, 10% glycerol, 1% SDS, and 0.01% bromophenol blue, and then separated in a 10% SDS-PAGE gel, and immunoblot analysis. […] The gel lane with separated bin2-6D-HA proteins was cut into a single slices, and then in-gel tryptic digestion and peptide desalting, the extracted peptides were analyzed by MALDI-TOF mass spectrometry on an Ultraflex III TOF/TOF (Bruker Daltonics, Germany). […]

BIN2 [4] = target: T1, BIN2 (Arabidopsis thaliana, UniProt Q39011); test: Yeast two-hybrid assay of the BIN2-BRF1 interaction; assay type: binding; conditions: SD/-L-T-H medium with 1.5 mM 3-AT
T1 construct: the full-length cDNA fragments of BIN2 and BRF1 were PCR amplified with specific primers; expressed in transfected cells; host or cells: yeast strain AH109
T1 sequence (Q39011 1-380): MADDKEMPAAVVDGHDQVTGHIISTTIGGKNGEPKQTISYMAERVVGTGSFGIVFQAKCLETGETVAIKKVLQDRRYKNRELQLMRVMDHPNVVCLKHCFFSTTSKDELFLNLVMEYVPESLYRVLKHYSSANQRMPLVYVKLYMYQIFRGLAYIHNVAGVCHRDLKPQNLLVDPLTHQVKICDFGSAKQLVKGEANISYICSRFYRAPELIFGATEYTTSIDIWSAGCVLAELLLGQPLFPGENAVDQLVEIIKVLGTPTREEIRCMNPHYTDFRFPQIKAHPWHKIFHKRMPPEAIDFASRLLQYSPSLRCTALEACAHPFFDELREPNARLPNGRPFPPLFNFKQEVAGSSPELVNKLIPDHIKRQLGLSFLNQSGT
Procedure: Yeast two-hybrid assay was conducted following the Matchmaker Gold Yeast Two-Hybrid System manufacturer's protocol (Clontech) for testing the BIN2 and BRF1 interaction.
To make the yeast two-hybrid assay constructs, the full-length cDNA fragments of BIN2 and BRF1 were PCR amplified with specific primers, BIN2-F and BIN2-R, BRF1-NdeI-F and BRF1-EcoRI-R, respectively. The PCR products BIN2 and BRF1 were ligated to the prey pGADT7 vector (AD vector) and the bait pGBKT7 vector (DBD vector), respectively. These prey and bait vectors were transformed into the yeast strain AH109, and yeast was grown on SD/-Trp/-Leu medium for 3 days. Transformants were selected on SD/Leu-/Trp- and SD/Leu-/Trp-/His-/1.5 mM 3-amino-1,2,4-triazole (3-AT, Sigma) medium. Empty vectors were used as the negative control.
Yeast two-hybrid analysis performed using primers BIN2-NdeI-F (5′-[…]-3′), BIN2-EcoRI-R (5′-[…]-3′), BRF1-NdeI-F (5′-[…]-3′), BRF1-EcoRI-R (5′-[…]-3′), (NdeI and EcoRI sites are underlined) (SEQ ID NOs: 48-51)

## CC(C)[C@@H](C)[C@@H](O)[C@H](O)[C@@H](C)[C@H]1CC[C@H]2[C@@H]3COC(=O)[C@H]4C[C@H](O)[C@H](O)C[C@]4(C)[C@H]3CC[C@]12C [BL, 24-epibrassinolide]
BIN2-HA protein; BRZ-grown BIN2-HA seedlings transferred to BL liquid medium, Western
  time within which BRZ-stabilized BIN2-HA protein decreased by BL treatment: 10 to 30 min
[1]; 1 μM BL-containing medium for 0, 2, 4 and 8 d
  phenotypic response of BIN2-HA transgenic line to BL treatment: responds
[2]
  phenotypic response of dwarfed bin2-6D-HA line to BL treatment: BL-insensitive

## CC(O)(c1ccccc1)C(Cc1ccc(Cl)cc1)n1cncn1 (stereo not drawn) [BRZ]
BIN2-HA protein; exogenous application of BRZ
  effect of exogenous application on BIN2 protein: increased
[1]; 2 μM BRZ medium for 2 weeks
  effect of BRZ treatment on bin2 phenotype of BIN2-HA seedling: enhanced

## CC(C)C[C@@H](C=O)NC(=O)[C@H](CC(C)C)NC(=O)[C@H](CC(C)C)NC(=O)OCc1ccccc1 [MG132] (Cbz-Leu-Leu-Leu-aldehyde)
BIN2-HA protein; BIN2-HA seedlings, 1 μM BRZ 2 weeks, then 1 μM BL and/or 20 μM MG132, 30 min, IP/Western
  effect on BL-induced BIN2 disappearance: effectively blocked

B1: BRF2: Arabidopsis F-box E3 ligase protein encoded by At5g56690, SEQ ID NO: 4 (protein, listed as Arabidopsis sp.)
chain: MAEISGLPDDLLVKILAFLPTKVAISTSVLSKQWRFLWMWLPKLKYDDYDDITDGFNSVSAFQTYRDFIAKNLPLHRAPIIESLSLGFRCGTLQPEDLKSWVEVAVSRSVRELSILAYYRNNYALSSSSLYTCKSLVTLKGFNIRVDVPPTVCLLPSLRTLELKRVRYLNEDSLRMLLSFCPVLEYLSIERHDNDNLRGLVVDVPSLRRLSLTSYTGCSSDDYVIVTPSLKYFKAFDYRSEISSYKIEKIPELEEADISIERNPEKLFVYFKSIKCLSLQVDFNSKEEPGYDSGIVFNHLEELTPYINDANWSKLLFRLLNDSPKLRVLEISNSKSFYKEKIGEYLPVSWSKNQGSVPKCFLNSLETFRVKWYYSEEQEDRDFLSLIFKHARCLKSTSILHR
BIN2 [3]
  identification as BIN2-interacting protein by IP combined LC/MALDI-TOF/MS: BIN2-interacting protein

B2: BRF1: Arabidopsis F-box E3 ligase protein encoded by At5g62970, SEQ ID NO: 2 (protein, listed as Arabidopsis sp.)
chain: MDKISGFSDDELLVKILSFLPFKFAITTSVLSKQWKFLWMRVPKLEYDEDSMYSFEYSFRYFLPKAKEVDSETYSIVSESGHRMRSFIEKNLPLHSSPVIESLRLKFFTEVFQPEDIKLWVEIAVSRCAQELSVDFFPKEKHNALLPRNLYTCKSLVTLKLRNNILVDVPHVFSLPSLKILHLERVTYGDGESLQRLLSNCSVLEDLVVELDTGDNVRKLDVIIPSLLSLSFGMSRYCAYEGYRIDTPSLKYFKLTDLSKTFSGLIENMPKLEEANITARHNFKKLLELVTSVKRLSLNIENNDAEALTAIYGDDIVFNELEHLNFHIHNAYWSELLYWLLKASPKLQNLEFDEQCSRDGTMGTLAVFWNQPNSVPQCLLSTLQTFEWSGYPGSVQGKDLATYILRKSRQLKIATISIGYGLDPQQKLKMEMDVKFSFRASPTCKRVFY
BIN2 [3]
  identification as BIN2-interacting protein by IP combined LC/MALDI-TOF/MS: BIN2-interacting protein
BIN2 [4]
  interaction with BIN2 in yeast two-hybrid assay: specially interacted
